Experimental data published in patent US20080279961A1, “TELOMERE TARGETING AGENTS AS STEM CELLS DIRECTED TREATMENTS” (priority 2007, published 2008).
Where “and” joins values, the source holds several entries; their conditions need not be identical. Identical values can stand only once.

Legend:
UXF1138L xenografts = experiment: tumor growth inhibition of subcutaneous xenografts; type: in vivo, nude mice
hTERT = hTERT immunohistochemistry of xenograft tissue; type: in vivo, human; details: RHPS4 treated UXF1138L xenograft
Protocol: Five-micrometer paraffin sections were cut, dewaxed, and antigen retrieval done in citrate buffer (pH 6.0) in the microwave for 30 minutes. Sections were then treated with methanol/3% hydrogen peroxide to remove endogenous peroxidase and blocked with 10% normal goat serum in PBS and stained. PBS was used as washing buffer. Cells were incubated overnight at 4° C. with a monoclonal anti-hTERT antibody (class IgG2a, kappa, Novacastra, Newcastle, UK) diluted 1:40 in PBS. Mouse immunoglobulin G2a isotype control (Santa Cruz) was used as negative control. hTERT-specific immunoperoxidase staining was developed using the DAKO Envision+ system (Envision 3,3V-diaminobenzidine Plus kit mouse, DAKO Cytomation). To enhance contrast, tissues were counterstained with hematoxylin. hTERT-specific staining intensity was documented using a Leica DM4000 microscope and digital camera. Sections were viewed and evaluated by two independent pathologists. Mean numbers of atypical mitoses were counted in control and treated tissues from 3 tumors (4 fields of 250 cells per tumor) for the 3 groups (Burger et al. 2005). Box plots were generated using SigmaPlot version 10 software and statistical significance between treatments calculated in SigmaPlot using the Student T-test.

UXF1138L cells = experiment: MTT proliferation assay (bulk cells); type: cell-based, human; details: 5 day, read-out: IC50 growth inhibition of the bulk population by MTT assay
Protocol: (§1) The growth inhibitory activity of RHPS4 in human bulk tumor cells have been compared, by MTT assay, against RHPS4 activity in tumor cells grown as colonies in the clonogenic assay, also termed the human tumor stem cell assay (HTCA) (FIG. 2A-B). HEK293T human embryonic kidney cells grown in the HTCA, and cord blood cells cultured in methylcellulose were also treated with RHPS4 (FIG. 2C). The MTT assay is a 5 day proliferation test measuring effects on a morphologically heterogeneous, differentiated cell population (bulk cells), whereas the HTCA and methylcellulose assays are longer term (10-15 day) tests in which only a very small fraction of a bulk culture (˜0.1-1%) will grow as colonies. Cells growing anchorage-independently as colonies in a semi-solid matrix are considered to be pluripotent stem cells (Hamburger & Salmon, 1977; Locke et al., 2005; Fiebig et al. 2004). […] Similar observations were made with the breast cancer cell line MCF-7 (shown in FIG. 2B, HTCA IC50=0.04 microM; bulk cell IC50=2 microM).

PC3 cells = experiment: MTT proliferation assay (bulk cells); type: cell-based, human; details: PC3, 5 day; read-out: IC50 growth inhibition of the bulk population by MTT assay
Protocol: as §1

MCF-7 cells = experiment: MTT proliferation assay (bulk cells); type: cell-based, human; details: MCF-7, 5 day; read-out: IC50 bulk cell / whole cell population by MTT assay
Protocol: as §1

UXF1138L tumor tissue = experiment: HTCA/clonogenic growth of in vivo treated xenograft tissue; design: species or system nude mice; details: for HTCA growth [%]: control set 100%
Protocol: Upon termination of the experiment, which was when tumors reached a volume of 1.5 cm in diameter (day 28), RHPS4 treated tumor tissue and control tumors were excised, minced and digested using a mixture of collagenase (123 U/ml), DNase (375 U/ml), and hyaluronidase (290 U/ml) in RPMI 1640 medium at 37° C. for 3 hrs. All enzymes were purchased from Roche, Indianapolis Ind.). Primary cultures as well as clonogenic growth assays were prepared from the resulting single cell suspensions. Primary cultures were used for analysis of telomere length. In addition, RHPS4 treated tumors (5 mg/kg/d) and control were propagated into new animals for up to three times. The control mouse group was always derived from untreated tumor fragments, but from the same initial passage as were the RHPS4 treated tumors (FIG. 1B).
In human tumor stem cell assay (HTCA)/clonogenic assay, single cell suspensions from in vivo studies above were washed in medium and passed through sieves and the resulting single cell suspensions seeded into soft agar (n=3 tumors per group) as described by us before (Fiebig et al., 2004). Single cell suspensions of cell lines were prepared by trypsinization from cells growing as monolayers on plastic. Briefly, 5,000 (HEK293T cells), 10,000 (PC3, MCF-7 and UXF1138L cells) or 50,000 (UXF1138L tumor tissue) vital cells were added to 0.2 ml Iscove's medium/20% fetal bovine serum/0.05% gentamycin containing 0.4% agar and plated on top of a base layer consisting of 0.2 ml medium with 0.75% agar. The next day, the agar layers were fed with Isocve's medium and cultures incubated at 37° C., 7% CO2 for approximately 11 days. Vital colonies were stained with 2-(4-iodophenyl)-3-(4-nitrophenyl)-5-phenyltetrazolium chloride (1 mg/ml) 24 hrs before evaluation, and colonies >70 μm were counted with an automated image analysis system (Omincon FAS IV, BIOSYS GmbH, Karben, Germany). Drug effect was assessed as growth inhibitory concentrations 50 and 70% (IC50, IC70). Methylcellulose was used to grow cord blood stem cells instead of soft agar. The seeding density was 20,000 cells/well. Stem cell growth factor supplemented and optimized methylcellulose (Methocult H4434) was purchased from Stem Cell Technologies (Vancouver, CA). Methylcellulose lacking growth factors was used as negative growth control. Statistical significance between treatment groups was evaluated by using the Student T-test.

Compound: COS(=O)(=O)[O-].Cc1cc2c3c([n+](C)c4ccc(F)cc4c3c1)-c1cc(F)ccc1N2C [RHPS4, 3,11-difluoro-6,8,13-trimethyl-8H-quino[4,3,2-kl]acridinium methosulfate]
- tumor growth inhibition, maximal extent compared to control (UXF1138L xenografts; Passage 3, day 28): 33%
- day of optimal Test/Control (UXF1138L xenografts; Passage #1): (16) day
- opt. Test/Control [%] (UXF1138L xenografts; Passage #1, median tumor volume, 5 mg/kg p.o.): 63%
- day of optimal Test/Control (UXF1138L xenografts; Passage #2): (7) day
- opt. Test/Control [%] (UXF1138L xenografts; Passage #2, median tumor volume, 5 mg/kg p.o.): 100%
- opt. Test/Control [%] (UXF1138L xenografts; Passage #3, median tumor volume, 5 mg/kg p.o., 5 mg/kg): 67% and 67.7%
- day of optimal Test/Control (UXF1138L xenografts; Passage #4): (16) day
- opt. Test/Control [%] (UXF1138L xenografts; Passage #4, RHPS4 5 mg/kg p.o. twice weekly, Paclitaxel 20 mg/kg i.v.): 62%
- antitumor response in words (UXF1138L xenografts; Passage #4 UXF1138L xenografts): only marginal growth inhibition
- oral single agent activity (UXF1138L xenografts; any of the 4 passages): did not show oral single agent activity
- nuclear hTERT expression in xenograft tissue (hTERT): loss of strong nuclear hTERT expression
- IC50 (UXF1138L cells): 400 nM
- IC50 (PC3 cells): 1800 nM
- IC50 (MCF-7 cells): 2000 nM
- inhibition of colony forming units in the same tumor tissues (UXF1138L tumor tissue; Passage 3): 54%±6.6
- HTCA growth [%] (UXF1138L tumor tissue; Passage #1): 83 ± 2.3%
- HTCA growth [%] (UXF1138L tumor tissue; Passage #2): 93 ± 2.3%
- HTCA growth [%] (UXF1138L tumor tissue; Passage #3): 54.5 ± 6.6%
- HTCA growth [%] (UXF1138L tumor tissue; Passage #4): 44 ± 6.4%
- clonogenicity of RHPS4 treated tumor tissue in soft agar tumor stem cell assay (UXF1138L tumor tissue; passages 1-4): marked reduction in clonogenicity
